Measurements as given in article PMC5691054, “An unexpected protein interaction promotes drug resistance in leukemia” (Nature Communications, 2017).
“Also recorded” adds a separate entry of the source. Where no end group is shown, it is not given here.

Key:
[1] = system: HEK293 cells; assay: 6MP cytotoxicity / drug resistance in transfected HEK293 cells; type: cell-based, Human; conditions: for IC50: Homo sapiens, HEK293, 96 h, HEK293 expressing ABCC4, CellTiter Glo
Experimental: (§1) HEK293 cells transfected with ABCC4 or ABCC4ΔC in the presence or absence of MPP1, MO7e, and Meg01 cells were treated with 10 concentrations of 6MP, ranging from 1 to 1000 µM, for 96 h. Cell viability analysis was determined using CellTiter Glo (Promega). Where applicable, cell penetrating peptides conjugated to the PDZ-binding motif of ABCC4 (labeled either ABCC4-PDZ or ABCC4ΔC) were added to the cells at 20 μM. Media was changed daily and new ABCC4-PDZ/ABCC4ΔC peptide and 6MP was added. IC50 values were calculated using GraphPad Prism.

[2] = system: MO7e cells; assay: 6MP cytotoxicity in MO7e cells and CRISPR knock-outs; type: cell-based, Human; conditions: for IC50: Homo sapiens, Mo7e, 96 h, CellTiter Glo, triplicate; for decrease of 6MP resistance vs. parental cells: MO7e
Experimental: as §1
CRISPR-Cas9 plasmids containing gRNAs against ABCC4 ([…]) and MPP1 ([…]) were purchased from Sigma Aldrich. MO7e cells were transiently transfected with constructs containing the gRNA, Cas9 Nickase, and a flurophore. Forty-eight hours after transfection, cells were sorted for fluorescent positive cells and single cells were sorted into individual wells of a 96-well plate. Single-sorted cells were allowed to expand and deletion of the gene of interest was verified by immunoblotting.
The Meg01, MO7e, and ABCC4 KO MO7e cell lines were plated at 1500 cells per well in a 96-well plate. Cells were treated with 10 concentrations of Antimycin A (Santa Cruz) ranging from 0.01 to 1000 μM. Cell viability was determined using CellTiter Glo (Promega). Meg01, MO7e, and ABCC4 KO MO7e cells in the presence or absence of 10 nM Antimycin A were treated with 10 concentrations of 6MP, ranging from 1 to 1000 µM, for 96 h. Cell viability analysis was determined using CellTiter Glo. IC50 values were calculated using GraphPad Prism.

[3] = system: HEK293 cells; assay: Etoposide cytotoxicity in transfected HEK293 cells; type: cell-based, Human; conditions: for IC50: Homo sapiens, triplicate
[4] = system: MO7e cells; assay: Etoposide cytotoxicity in MO7e cells and CRISPR knock-outs; type: cell-based, Human; conditions: for IC50: Homo sapiens, Mo7e, triplicate
[5] = system: primary AML cells from adult patients; assay: Annexin V/PI apoptosis in primary AML patient samples; type: cell-based, Human
Experimental: Primary AML cells from adult patients were treated with either vehicle, 50 or 100 µM cytarabine, 10 nM Antimycin A, or the combination of 50 or 100 µM cytarabine + 10 nM Antimycin A for 4 h. Post treatment, the cells were washed with fresh media (2×) and resuspended in the absence or presence of 10 nM Antimycin A and cultured for an additional 44 h (for a total treatment time of 48 h). The cells were then stained with Annexin V-fluorescein isothiocyanate (FITC)/propidium iodide (PI) apoptosis Kit (Beckman Coulter; Brea, CA, USA). The stage of apoptotic cells (Annexin V-positive, but early or late apoptosis) is identified by the proportion of AnnexinV+/PI− (early apoptosis) and Annexin V+/PI+ (late apoptosis) cells. This experiment was performed once in triplicates (presented as average ± SEM) due to the limited sample availability. Patient samples were selected based on the availability of an adequate number of cells to perform the assay.

[6] = target: T1, MPP1 and ABCC4 protein interaction (Homo sapiens, UniProt Q00013); assay: Competition of ABCC4 C-terminal peptides with MPP1–ABCC4 complex (GST-ABCC4-C100 pull-down, immunoblot); type: biochemical; conditions: in words; in vitro competition experiment
T1 construct: For full-length expression of MPP1, the pTriX vector containing an N-terminal His tag was used to create the His-S-MPP1 fusion protein; made in house; host or cells: E. coli
T1 sequence (Q00013 1-466): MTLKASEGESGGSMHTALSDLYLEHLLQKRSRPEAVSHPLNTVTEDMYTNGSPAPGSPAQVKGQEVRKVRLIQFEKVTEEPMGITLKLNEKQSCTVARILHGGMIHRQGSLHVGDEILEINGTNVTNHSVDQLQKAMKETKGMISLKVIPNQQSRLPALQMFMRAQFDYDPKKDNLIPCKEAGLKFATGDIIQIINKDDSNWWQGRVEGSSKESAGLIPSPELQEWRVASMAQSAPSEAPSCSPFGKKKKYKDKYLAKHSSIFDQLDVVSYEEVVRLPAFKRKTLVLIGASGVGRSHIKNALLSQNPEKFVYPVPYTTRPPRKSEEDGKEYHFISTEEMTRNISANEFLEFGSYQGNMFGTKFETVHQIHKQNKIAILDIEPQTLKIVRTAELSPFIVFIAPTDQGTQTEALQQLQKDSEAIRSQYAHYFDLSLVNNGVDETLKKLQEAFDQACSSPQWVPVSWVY
Experimental: C-terminal peptides of ABCC4 containing the carboxyl-terminal 15 amino acids ([…]-COOH, ABCC4-PDZ) or carboxyl-terminal 11 amino acids lacking the PDZ-binding motif ([…]-COOH, ABCC4ΔC) conjugated to the cell penetrating peptide TAT ([…]) were chemically synthesized by the Hartwell Center for Bionformatics and Biotechnology at SJCRH. ABCC4 peptides (1–4 μM) were mixed with purified GST-ABCC4-C100 (50 nM) (Supplementary Fig. 10 ) before addition of His-S-MPP1 (3.6 nM) and allowed to mix for 2 h at 24 °C. The GST-ABCC4-C100 was immobilized on glutathione beads, and washed 3 times. Protein complexes were eluted from the beads, separated by SDS-PAGE, and immunoblotted with rabbit anti-MPP1.

[7] = system: ABCC4 plasma membrane localization in HEK293 cells expressing MPP1 and GFP-ABCC4; assay: ABCC4 plasma membrane localization (confocal microscopy); type: cell-based, Human
Experimental: Peptides containing or lacking the ABCC4-PDZ motif were fused with the cell penetrating HIV-TAT peptide. These peptides were tested for their effect on ABCC4 plasma membrane localization. HEK293 cells were transfected with MPP1 and GFP-ABCC4 and the ER protein, calreticulin. The plasma membrane was counter-stained with wheat-germ-agglutinin (WGA) labeled with Alexa647 after treatment with either ABCC4-PDZ or ABCC4ΔC peptide.
HEK293 cells were seeded on chambered coverglass slides (LAB-TEK) 48 h before transfection with plasmid DNA (250 ng) encoding pAc-GFP-ABCC4 or ABCC4ΔC and pCal plasmid encoding the ER resident protein calreticulin conjugated to RFP (Origene). Transfection was performed using Lipofectamine 2000 as per the manufacturer’s instructions. Immediately prior to visualizing cells, cells were counterstained with the plasma membrane marker wheat-germ agglutinin (WGA) conjugated to Alexa-647 (Invitrogen). All confocal microscopy images were acquired on a 3i Marianas system configured with an Yokagowa CSU-X spinning disk confocal microscope utilizing a ×63 Zeiss objective, using the 488 (GFP), 561 (RFP), and 660 (far red) laser lines.

[8] = system: MO7e cells; assay: 6MP cytotoxicity in MO7e cells and CRISPR knock-outs; type: cell-based, Human; conditions: cell permeable peptide (10 μM), in words
[9] = system: murine hematopoietic progenitor cells (HPC); assay: Hematopoietic progenitor cell serial replating in methylcellulose; conditions: HPC transduced with MPP1; cell penetrating peptide, fresh at each replating; n = 3
Experimental: In these experiments, littermates were used as controls. Bone marrow from 8- to 12-week-old female virgin C57/BL6 mice were harvested. Progenitors were enriched by incubating with lineage-PE antibodies (CD4, CD8, Mac1, Gr1, NK1.1, B220, and Ter119) and separated using AutoMACS Pro (Miltenyi). Hematopoetic progenitor cells were cultured in the presence of recombinant murine SCF (rmSCF), IL3 (rmIL3), and IL6 (rmIL6) (Peprotech; all 50 ng/ml) for 48 h before transduction on RetroNectin (Takara) coated plates. Retroviral supernatant containing media was produced by transient transfection of HEK293T cells with MSCV based retroviral plasmids encoding either MYCN-ires-YFP or MPP1-ires-CFP as previously described[35]. Forty-eight hours post transduction, cells were harvested, sorted for either YFP or CFP expression, and plated on methylcellulose containing IL3, IL6, SCF, and EPO (Stem Cell Technologies). Colonies were counted after 7 days growth at 37 °C, harvested, and replated.

[10] = system: ABCC4 (MO7e lysates); assay: Immunoprecipitation of ABCC4 from MO7e lysates by purified MPP1 fragments; type: binding, Human; conditions: purified fragment with MO7e lysates, n = 3, in words
Source text: For full-length expression of MPP1, the pTriX vector containing an N-terminal His tag was used to create the His-S-MPP1 fusion protein. Proteins were expressed in E. coli and purified using a nickel column (Supplementary Fig. 9). The production of cDNA constructs containing various defined segments of MPP1 has been described previously. The cDNA fragments containing either the N-terminal domain of MPP1 (amino acids 1–83), the PDZ domain (amino acids 83–160) or the C-terminal domain, containing both the SH3 and GUK domains (amino acids 161–466), were PCR amplified and subcloned into the pGex vector. All clones were fully sequenced to confirm their identity and reading frame. The GST-fusion proteins were purified using a glutathione column.

## Sc1ncnc2nc[nH]c12 [6MP, 6-mercaptopurine]
[1]; HEK293, ABCC4ΔC, in words
  effect of MPP1 on survival of cells expressing ABCC4 lacking the PDZ motif: no additional survival benefit
[1]; HEK293 ABCC4 vs. empty vector (Ctrl)
  increase of 6MP IC50 by ABCC4 expression: 2.6 fold
[1]; end of the shift with increasing MPP1 (P < 0.05), 96 h
  IC50: 608 µM
[1]; start of the shift with increasing MPP1, 96 h
  IC50: 184 µM
[2]; MO7e + Antimycin A (10 nM), Fig. 6a
  IC50: 13.6 µM
[2]; MO7e ABCC4 KO + Antimycin A (10 nM), Fig. 6a
  IC50: 22.2 µM
[2]; MO7e ABCC4 KO, Fig. 4f
  IC50: 27.6 µM
[2]; MO7e DKO (ABCC4 and MPP1), Fig. 4f
  IC50: 10.9 µM
[2]; MO7e MPP1 KO, Fig. 4f
  IC50: 27.7 µM
[2]; MO7e parental, Fig. 4f
  IC50: 135 µM
[2]; without Antimycin A, Fig. 6a
  IC50: 135 µM
[2]; MPP1 deletion alone
  decrease of 6MP resistance vs. parental cells: over fourfold
[2]; deletion of ABCC4
  decrease of 6MP resistance vs. parental cells: over fourfold

## COc1cc([C@@H]2c3cc4c(cc3[C@@H](O[C@@H]3O[C@@H]5CO[C@@H](C)O[C@H]5[C@H](O)[C@H]3O)[C@H]3COC(=O)[C@H]23)OCO4)cc(OC)c1O [Etoposide, etoposide]
[3]; HEK293, in words
  effect of ABCC4 and/or MPP1 on etoposide sensitivity: not affected by MPP1; also recorded: not affected by the presence of either ABCC4 and/or MPP1
[3]; HEK293, HEK293 ABCC4 + MPP1
  IC50: 1.2 µM
[3]; HEK293, HEK293 ABCC4
  IC50: 1.3 µM
[3]; HEK293, HEK293 ABCC4ΔC + MPP1
  IC50: 1.2 µM
[3]; HEK293, HEK293 ABCC4ΔC
  IC50: 1.5 µM
[3]; HEK293, HEK293 Ctrl (empty vector)
  IC50: 1.4 µM
[4]; MO7e ABCC4 KO
  IC50: 23.9 µM
[4]; MO7e DKO
  IC50: 21.5 µM
[4]; MO7e MPP1 KO
  IC50: 20 µM
[4]; MO7e parental
  IC50: 27.2 µM
[4]; MO7e ABCC4 KO, MPP1 KO, DKO, in words
  etoposide sensitivity of knock-out strains: did not affect etoposide sensitivity; also recorded: equally sensitive to etoposide

## Nc1ccn([C@@H]2O[C@H](CO)[C@@H](O)[C@@H]2O)c(=O)n1 [cytarabine, cytosine arabinoside]
[5]; one primary AML patient sample, in culture and in vivo (peer review file)
  cytarabine response of primary AML cells: non-responsive
[5]; the other patient sample (peer review file)
  cytarabine response of primary AML cells: sensitive

## SNGQPSTLTIF-COOH (YGRKKRRQRRRSNGQPSTLTIF-OH) [ABCC4ΔC]
[6]
  disruption of the MPP1 and ABCC4 protein interaction: incapable of disrupting the MPP1 and ABCC4 protein interaction
[7]; cell penetrating peptide (TAT fused; 10 μM in Supplementary Fig. 4), n = 20 fields of view
  ABCC4 remaining at the membrane: > 80%
[7]; in words, confocal microscopy
  effect on ABCC4 plasma membrane localization: ineffective in relocalizing ABCC4
[1]; HEK293 co-expressing ABCC4 and MPP1, cell penetrating peptide (20 μM in methods; various amounts), 96 h, in words
  effect of peptide on 6MP IC50: without effect; also recorded: no effect on 6MP IC50 values
[8]
  effect of peptide on 6MP sensitivity: had no effect
[9]
  effect on MPP1-driven methylcellulose replating: incapable of suppressing MPP1-stimulated replating

B1: MPP1 N terminus: MPP1 N terminus, up to the PDZ domain (amino acids 1–83) (protein, UniProt Q00013 1-83, looked up, fragment)
chain: MTLKASEGESGGSMHTALSDLYLEHLLQKRSRPEAVSHPLNTVTEDMYTNGSPAPGSPAQVKGQEVRKVRLIQFEKVTEEPMG
[10]
  immunoprecipitation of ABCC4: incapable of immunoprecipitating ABCC4

B2: SH3 and GUK domain: SH3 and GUK domain of MPP1 (amino acids 162–466) (protein, UniProt Q00013 162-466, looked up, fragment)
chain: FMRAQFDYDPKKDNLIPCKEAGLKFATGDIIQIINKDDSNWWQGRVEGSSKESAGLIPSPELQEWRVASMAQSAPSEAPSCSPFGKKKKYKDKYLAKHSSIFDQLDVVSYEEVVRLPAFKRKTLVLIGASGVGRSHIKNALLSQNPEKFVYPVPYTTRPPRKSEEDGKEYHFISTEEMTRNISANEFLEFGSYQGNMFGTKFETVHQIHKQNKIAILDIEPQTLKIVRTAELSPFIVFIAPTDQGTQTEALQQLQKDSEAIRSQYAHYFDLSLVNNGVDETLKKLQEAFDQACSSPQWVPVSWVY
[10]
  immunoprecipitation of ABCC4: incapable of immunoprecipitating ABCC4
